In brackets after ≈: the same amount, converted by molar mass.
Tests used:
[1] = In vitro release of camptothecin (dialysis bag, Korsmeyer-Peppas model); format: physicochemical; conditions: PBS pH 7.4, 37° C., 168 hours, MWCO 2,000 Da
Experimental: The in vitro release of camptothecin under different conditions were compared; the conditions were: […] The test duration time was 168 hours, the test temperature was 37° C., and the dialysis bag with molecular weight cut-off (MWCO) of 2,000 Da was used.

A549 cells = experiment: Cytotoxicity test on A549 cells; format: cell-based; conditions: Homo sapiens, 24 hours after drug administration
Experimental: The amount of the cells in each test well was 100 cells. 24 hours after the drug administration, the cell counts were measured.

HT-29 cells = experiment: Cytotoxicity test on HT-29 cells; format: cell-based; conditions: Homo sapiens, 24 hours after drug applied

CC[C@@]1(O)C(=O)OCc2c1cc1n(c2=O)Cc2cc3ccccc3nc2-1 [Camptothecin]
K (Korsmeyer-Peppas model) [1]: 44.25 | n (Korsmeyer-Peppas model) [1]: 0.09985 | IC50 (A549 cells): 40.1 µg/mL (≈ 115 µM) | IC50 (HT-29 cells): 52.3 µg/mL (≈ 150 µM)

Reference: patent US20230064879A1, “NANODRUG PARTICLES, THE USE THEREOF, AND PREPARATION METHOD THEREOF” (NATIONAL YANG MING CHIAO TUNG UNIVERSITY, priority 2021, published 2023)
